# From US20220089592A1, “IMIDAZO[1,2-A]PYRIDINYL DERIVATIVES AS IRAK4 INHIBITORS” (priority 2019, published 2022)
# Tests used:
# IRAK4 [1] = molecular target: T1, IRAK4 (Homo sapiens, UniProt Q9NWZ3); experiment: 2-hour 10 μM ATP Biochemical Assay (MesoScale Detection format; IRAK4 phosphorylation of biotin labeled IRAK1 activation loop peptide); settings: IRAK4 MSD BIOCHEMICAL (10 μM ATP) IC50 (μM), 1 nM IRAK4, 2 hours
# T1 sequence (Q9NWZ3 1-460): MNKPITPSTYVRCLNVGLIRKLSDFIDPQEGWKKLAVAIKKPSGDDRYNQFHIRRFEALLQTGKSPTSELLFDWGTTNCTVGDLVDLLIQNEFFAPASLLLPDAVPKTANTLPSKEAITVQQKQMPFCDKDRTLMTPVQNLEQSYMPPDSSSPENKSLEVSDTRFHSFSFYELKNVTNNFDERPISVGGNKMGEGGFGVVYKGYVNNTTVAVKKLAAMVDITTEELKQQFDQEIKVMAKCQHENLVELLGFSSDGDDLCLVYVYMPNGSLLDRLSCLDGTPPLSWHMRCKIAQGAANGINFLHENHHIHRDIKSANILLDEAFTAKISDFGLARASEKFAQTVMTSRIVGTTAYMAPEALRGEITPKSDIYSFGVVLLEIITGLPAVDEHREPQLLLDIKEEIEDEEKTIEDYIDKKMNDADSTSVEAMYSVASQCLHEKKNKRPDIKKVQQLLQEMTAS
# How it was run: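 Kinase reaction run 2 h at 10 μM ATP with biotinylated IRAK1 activation-loop peptide, quenched with EDTA. Phospho-peptide captured on streptavidin MSD plates and detected with anti-phosphothreonine rabbit antibody plus Sulfo-Tag anti-rabbit electrochemiluminescence.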
# IRAK4 [2] = molecular target: T1, IRAK4; experiment: 2-hour 1 mM ATP IRAK4 Biochemical assay (as above, but with 100 pM IRAK4 and 1 mM ATP); settings: IRAK4 MSD BIOCHEMICAL (1 mM ATP) IC50 (μM), 100 pM IRAK4, 2 hours
# How it was run: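 Run with 100 pM IRAK4 and 1 mM ATP for 2 hours, quenched with EDTA pH 8. Phosphorylated biotinylated peptide captured on streptavidin MSD plates and detected with anti-phosphothreonine antibody plus Sulfo-Tag secondary by electrochemiluminescence.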
SMILES,IC50 (IRAK4 [1]) [µM],IC50 (IRAK4 [2]) [µM]
"CCOc1cc2nc([C@@H](O)C3CC3)cn2cc1NC(=O)c1cccc(C(F)(F)F)n1 (single isomer, unassigned) [Example 169]",0.003,0.009
"CCOc1cc2nc(CCCOC)cn2cc1NC(=O)c1cccc(OC)n1 [Example 524, N-(7-ethoxy-2-(3-methoxypropyl)imidazo[1,2-a]pyridin-6-yl)-6-methoxypicolinamide]",0.004,0.015
"CCOc1cc2nc([C@H](F)[C@@H]3CCOC3)cn2cc1NC(=O)c1cccc(C(F)(F)F)n1 (single isomer, unassigned) [Example 143]",0.001,0.002
"CCOc1cc2nc(C3CCOCC3)cn2cc1NC(=O)c1cccc(OC2CCC2)n1 [Example 236, 6-cyclobutoxy-N-(7-ethoxy-2-(tetrahydro-2H-pyran-4-yl)imidazo[1,2-a]pyridin-6-yl)picolinamide]",0.006,0.019
"CCOc1cc2nc([C@H]3C[C@@H](OC(C)C)C3)cn2cc1NC(=O)c1cccc(C(F)F)n1 [Example 136, 6-(difluoromethyl)-N-(7-ethoxy-2-((1s,3s)-3-isopropoxycyclobutyl)imidazo[1,2-a]pyridin-6-yl)picolinamide]",0.001,0.002
"O=C(Nc1cn2cc(C3CCOCC3)nc2cc1OC1CCOCC1)c1cccc(C(F)F)n1 [Example 185, 6-(difluoromethyl)-N-(2-(tetrahydro-2H-pyran-4-yl)-7-((tetrahydro-2H-pyran-4-yl)oxy)imidazo[1,2-a]pyridin-6-yl)picolinamide]",0.001,0.002
"CCOc1cc2nc(C(C)(C)C#N)cn2cc1NC(=O)c1coc(C(C)C)n1 [Example 358, N-(2-(2-cyanopropan-2-yl)-7-ethoxyimidazo[1,2-a]pyridin-6-yl)-2-isopropyloxazole-4-carboxamide]",0.006,0.014
"CCOc1cc2nc([C@H](C)[C@@H]3CCOC3)cn2cc1NC(=O)c1cccc(C(F)(F)F)n1 (single isomer, unassigned) [Example 138]",0.001,0.001

# Now from value to compound:
IC50 (IRAK4 [1]) [µM],IC50 (IRAK4 [2]) [µM],SMILES
0.007,0.022,"CCOc1cc2nc(C3CCOCC3)cn2cc1NC(=O)c1scc(C)c1OC [Example 211, N-(7-ethoxy-2-(tetrahydro-2H-pyran-4-yl)imidazo[1,2-a]pyridin-6-yl)-3-methoxy-4-methylthiophene-2-carboxamide]"
0.005,0.019,"CCOc1cc2nc(C3CCOCC3)cn2cc1NC(=O)c1ccn(C(C)C)n1 [Example 206, N-(7-ethoxy-2-(tetrahydro-2H-pyran-4-yl)imidazo[1,2-a]pyridin-6-yl)-1-isopropyl-1H-pyrazole-3-carboxamide]"
0.002,0.003,"CCOc1cc2nc(C3CCOCC3)cn2cc1NC(=O)c1cccc(C(F)CF)n1 (stereo not shown) [Example 239, 6-(1,2-difluoroethyl)-N-(7-ethoxy-2-(tetrahydro-2H-pyran-4-yl)imidazo[1,2-a]pyridin-6-yl)picolinamide]"
0.002,0.004,"CCOc1cc2nc(C3CCOCC3)cn2cc1NC(=O)c1cccc(OC)n1 [Example 133, N-(7-ethoxy-2-(tetrahydro-2H-pyran-4-yl)imidazo[1,2-a]pyridin-6-yl)-6-methoxypicolinamide]"
0.001,0.001,"CCOc1cc2nc(C3CCOCC3)cn2cc1NC(=O)c1cccc(C(F)F)n1 [Example 116, 6-(difluoromethyl)-N-(7-ethoxy-2-(tetrahydro-2H-pyran-4-yl)imidazo[1,2-a]pyridin-6-yl)picolinamide]"
0.005,0.009,"CCOc1cc2nc(C3CCOCC3)cn2cc1NC(=O)c1ccn(C2CC2(F)F)n1 (stereo not shown) [Example 209, 1-(2,2-difluorocyclopropyl)-N-(7-ethoxy-2-(tetrahydro-2H-pyran-4-yl)imidazo[1,2-a]pyridin-6-yl)-1H-pyrazole-3-carboxamide]"
